Data: ChEMBL document CHEMBL3596196, “In vitro evaluation and in silico screening of synthetic acetylcholinesterase inhibitors bearing functionalized piperidine pharmacophores” (Bioorg Med Chem, 2015)

Biological target: Acetylcholinesterase (Homo sapiens, UniProt P22303)
Assay: Inhibition of human acetylcholinesterase using ATCI/DTNB as substrate preincubated for 30 mins followed by substrate addition measured for 60 mins by Ellman method; call rule not given here

Acetylcholinesterase, sequence (P22303 whole entry): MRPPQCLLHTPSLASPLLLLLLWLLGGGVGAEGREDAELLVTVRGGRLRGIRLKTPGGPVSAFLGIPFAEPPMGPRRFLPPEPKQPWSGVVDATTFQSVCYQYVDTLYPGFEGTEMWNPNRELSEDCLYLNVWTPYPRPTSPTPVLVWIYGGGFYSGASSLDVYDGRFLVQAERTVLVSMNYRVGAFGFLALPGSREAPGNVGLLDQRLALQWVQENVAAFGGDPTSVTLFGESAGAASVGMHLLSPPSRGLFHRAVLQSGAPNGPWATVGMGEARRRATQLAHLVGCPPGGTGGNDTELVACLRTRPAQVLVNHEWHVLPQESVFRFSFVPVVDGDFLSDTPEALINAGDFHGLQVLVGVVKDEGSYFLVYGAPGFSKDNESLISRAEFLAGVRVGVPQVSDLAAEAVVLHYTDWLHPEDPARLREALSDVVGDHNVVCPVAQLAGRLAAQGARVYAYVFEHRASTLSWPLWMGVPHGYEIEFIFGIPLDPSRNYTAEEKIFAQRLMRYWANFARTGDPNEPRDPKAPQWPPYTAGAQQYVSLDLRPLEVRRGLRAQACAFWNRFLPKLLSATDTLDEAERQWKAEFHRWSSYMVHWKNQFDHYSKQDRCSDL

SMILES	IC50 (read-out: pIC50 (converted)) [µM]	further results
CCOC(=O)C1=C(Nc2ccccc2)C[C@@H](c2ccc(F)cc2)N(c2ccccc2)[C@@H]1c1ccc(F)cc1	0.39	–
CCOC(=O)C1=C(Nc2ccc(C)cc2)C[C@@H](c2ccccc2)N(c2ccc(C)cc2)[C@@H]1c1ccccc1	5.18	–
COC(=O)C1=C(Nc2ccc(Cl)cc2)C[C@@H](c2ccc(F)cc2)N(c2ccc(Cl)cc2)[C@@H]1c1ccc(F)cc1	0.71	–
COC(=O)C1=C(Nc2ccccc2)C[C@@H](c2ccccc2[N+](=O)[O-])N(c2ccccc2)[C@@H]1c1ccccc1[N+](=O)[O-]	–	IC50: Not Active
CCOC(=O)C1=C(Nc2ccc(Cl)cc2)C[C@@H](c2ccc(OC)cc2)N(c2ccc(Cl)cc2)[C@@H]1c1ccc(OC)cc1	0.38	–
CCOC(=O)C1=C(Nc2ccc(Cl)cc2)C[C@@H](c2ccccc2)N(c2ccc(Cl)cc2)[C@@H]1c1ccccc1	4.6	–
CCOC(=O)C1=C(Nc2ccc(OC)cc2)C[C@@H](c2ccc(C)cc2)N(c2ccc(OC)cc2)[C@@H]1c1ccc(C)cc1	4.98	–
CCOC(=O)C1=C(Nc2ccc(F)cc2)C[C@@H](c2ccc(Cl)cc2)N(c2ccc(F)cc2)[C@@H]1c1ccc(Cl)cc1	0.55	–
CCOC(=O)C1=C(Nc2ccc(OC)cc2)C[C@@H](c2ccccc2)N(c2ccc(OC)cc2)[C@@H]1c1ccccc1	2.25	–
COC(=O)C1=C(Nc2ccc(OC)cc2)C[C@@H](c2ccc(C)cc2)N(c2ccc(OC)cc2)[C@@H]1c1ccc(C)cc1	5.83	–
COC(=O)C1=C(Nc2ccccc2)C[C@@H](c2ccc3c(c2)OCO3)N(c2ccccc2)[C@@H]1c1ccc2c(c1)OCO2	0.511	IC50 (read-out: IC50): 3270 µM
CCOC(=O)C1=C(Nc2ccccc2)C[C@@H](c2ccc(C)cc2)N(c2ccccc2)[C@@H]1c1ccc(C)cc1	5.58	–
CCOC(=O)C1=C(Nc2ccccc2)C[C@@H](c2ccccc2)N(c2ccccc2)[C@@H]1c1ccccc1	2.95	–
COC(=O)C1=C(Nc2ccccc2)C[C@@H](c2ccc(C)cc2)N(c2ccccc2)[C@@H]1c1ccc(C)cc1	5.73	–
COC(=O)C1=C(Nc2ccc(F)cc2)C[C@@H](c2ccccc2)N(c2ccc(F)cc2)[C@@H]1c1ccccc1	15.1	–
COC(=O)C1=C(Nc2ccc(Cl)cc2)C[C@@H](c2ccc(C)cc2)N(c2ccc(Cl)cc2)[C@@H]1c1ccc(C)cc1	2.15	–
CC(C)(C)OC(=O)C1=C(Nc2ccccc2)C[C@@H](c2ccccc2)N(c2ccccc2)[C@@H]1c1ccccc1	2.79	–
COC(=O)C1=C(Nc2ccc(Br)cc2)C[C@@H](c2ccc(Cl)cc2)N(c2ccc(Br)cc2)[C@@H]1c1ccc(Cl)cc1	0.879	–
COC(=O)C1=C(Nc2ccc(Br)cc2)C[C@@H](c2ccc(C)cc2)N(c2ccc(Br)cc2)[C@@H]1c1ccc(C)cc1	2.48	–
COC(=O)C1=C(Nc2ccccc2)C[C@@H](c2ccccc2)N(c2ccccc2)[C@@H]1c1ccccc1	6.52	–
COC(=O)C1=C(Nc2ccc(Br)cc2)C[C@@H](c2ccc(OC)cc2)N(c2ccc(Br)cc2)[C@@H]1c1ccc(OC)cc1	2.16	–
COC(=O)C1=C(Nc2ccc(F)cc2)C[C@@H](c2ccc(F)cc2)N(c2ccc(F)cc2)[C@@H]1c1ccc(F)cc1	3.2	–
COC(=O)C1=C(Nc2ccccc2)C[C@@H](c2ccc(Cl)cc2)N(c2ccccc2)[C@@H]1c1ccc(Cl)cc1	0.879	–
COC(=O)C1=C(Nc2ccc(C)cc2)C[C@@H](c2ccc(C)cc2)N(c2ccc(C)cc2)[C@@H]1c1ccc(C)cc1	6.78	–
CCOC(=O)C1=C(Nc2ccc(C)cc2)C[C@@H](c2ccc(Cl)cc2)N(c2ccc(C)cc2)[C@@H]1c1ccc(Cl)cc1	5.4	–
